From US6525001B1, “Substituted pyrimidine and pyridine herbicides” (Mid-American Commercialization Corporation, priority 1997, dated 2003)

Assays:
Type in all cases: in vivo
[1] = system: morningglory (Ipomoea spp.); test: Test A pre-/postemergence; conditions: 0 to 10 scale
[2] = system: cotton (Gossypium hirsutum); test: Test C; parameters: key: 0 was no effect; 100 was complete control; conditions: PREEMERGENCE
[3] = system: surinam grass (Brachiaria decumbens); test: Test C; conditions: PREEMERGENCE
[4] = system: giant foxtail (Setaria faberii); test: Test C; parameters: key: 0 was no effect; 100 was complete control; conditions: PREEMERGENCE
[5] = system: common ragweed (Ambrosia elatior); test: Test C; parameters: key: 0 was no effect; 100 was complete control; conditions: PREEMERGENCE
[6] = system: redroot pigweed (Amaranthus retroflexus); test: Test C; parameters: key: 0 was no effect; 100 was complete control; conditions: PREEMERGENCE
[7] = system: wild oat (Avena fatua); test: Test B pre-/postemergence; parameters: key: 0 is no effect; 10 is complete control
Summary of the method: (§1)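 Compounds in a surfactant-containing, non-phytotoxic solvent blend are applied to freshly planted seed (preemergence) and, concurrently, to seedlings of 2 to 18 cm at 1–4 leaves (postemergence). Plants stay in the greenhouse twelve to sixteen days and are then scored visually from 0 (no effect) to 10 (complete control).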

[8] = system: purple nutsedge (Cyperus rotundus); test: Test B pre-/postemergence; parameters: key: 0 is no effect; 10 is complete control
Summary of the method: as §1

[9] = system: fall panicum (Panicum dichotomiflorum); test: Test C; conditions: PREEMERGENCE
[10] = system: wild poinsettia (Euphorbia heterophylla); test: Test C; parameters: key: 0 was no effect; 100 was complete control; conditions: PREEMERGENCE
[11] = system: soybean (Glycine max); test: Test C; parameters: key: 0 was no effect; 100 was complete control; conditions: PREEMERGENCE
[12] = system: lambsquarters (Chenopodium album); test: Test C; parameters: key: 0 was no effect; 100 was complete control; conditions: PREEMERGENCE
[13] = system: field bindweed (Convolvulus arvensis); test: Test C; conditions: PREEMERGENCE
[14] = system: eastern black nightshade (Solanum ptycanthum); test: Test C; conditions: PREEMERGENCE

In the case of `Cc1cnc(-c2ccc(C(F)(F)F)cc2)nc1Cc1cccc(C(F)(F)F)c1` [Example 1, 5-methyl-2-[4-(trifluoromethyl)phenyl]-4-[[3-(trifluoromethyl)phenyl]methyl]pyrimidine], the “Plant response rating, Morningglory” value ([1]; PRE SOIL DRENCH, Rate 2000 g/ha) is reported as 8, the “Plant response rating, Morningglory” value ([1]; postemergence SPRAYED TO RUNOFF, Rate 1000 g/ha) is reported as 9 and the “Plant response rating, Cotton” value ([2]; Rate 35 g/ha) is reported as 30. The “Plant response rating, Cotton” value ([2]; Rate 70 g/ha) was 60, the “Plant response rating, Cotton” value ([2]; Rate 140 g/ha) was 100 and the “Plant response rating, Surinam grass” value ([3]; Rate 35 g/ha) was 50. The “Plant response rating, Surinam grass” value ([3]; Rate 70 g/ha) was 90, the “Plant response rating, Surinam grass” value ([3]; Rate 140 g/ha) was 95 and the “Plant response rating, Giant foxtail” value ([4]; Rate 35 g/ha) was 100. The “Plant response rating, Giant foxtail” value ([4]; Rate 70 g/ha) was 100, the “Plant response rating, Giant foxtail” value ([4]; Rate 140 g/ha) was 100 and the “Plant response rating, Common ragweed” value ([5]; Rate 35 g/ha) was 80. For the same molecule, the “Plant response rating, Common ragweed” value ([5]; Rate 70 g/ha) was 100, the “Plant response rating, Common ragweed” value ([5]; Rate 140 g/ha) was 100 and the “Plant response rating, Redroot pigweed” value ([6]; Rate 35 g/ha) was 100. The “Plant response rating, Redroot pigweed” value ([6]; Rate 70 g/ha) was 100, the “Plant response rating, Redroot pigweed” value ([6]; Rate 140 g/ha) was 100 and the “Plant response rating, Wild oats” value ([7]; Rate 62 g/ha, Postemergence) was 4. For the same molecule, the “Wild oats plant response rating” value ([7]; Rate 62 g/ha, Preemergence) was 8, the “Plant response rating, Wild oats” value ([7]; Rate 125 g/ha, Postemergence) was 7 and the “Wild oats plant response rating” value ([7]; Rate 125 g/ha, Preemergence) was 9. For the same molecule, the “Plant response rating, Wild oats” value ([7]; Rate 250 g/ha, Postemergence) was 7, the “Plant response rating, Wild oats” value ([7]; Rate 250 g/ha, Preemergence) was 9 and the “Plant response rating, Wild oats” value ([7]; Rate 500 g/ha, Postemergence) was 9. For the same molecule, the “Plant response rating, Wild oats” value ([7]; Rate 500 g/ha, Preemergence) was 10, the “Nutsedge plant response rating” value ([8]; Rate 62 g/ha, Preemergence) was 0 and the “Nutsedge plant response rating” value ([8]; Rate 125 g/ha, Preemergence) was 0. The “Plant response rating, Nutsedge” value ([8]; Rate 250 g/ha, Postemergence) was 1, the “Plant response rating, Nutsedge” value ([8]; Rate 500 g/ha, Postemergence) was 2 and the “Plant response rating, Nutsedge” value ([8]; Rate 500 g/ha, Preemergence) was 1. For the same molecule, the “Plant response rating, Fall panicum” value ([9]; Rate 35 g/ha) was 90, the “Plant response rating, Fall panicum” value ([9]; Rate 70 g/ha) was 90 and the “Plant response rating, Fall panicum” value ([9]; Rate 140 g/ha) was 95. For the same molecule, the “Plant response rating, Wild poinsettia” value ([10]; Rate 35 g/ha) was 0, the “Plant response rating, Wild poinsettia” value ([10]; Rate 70 g/ha) was 10 and the “Plant response rating, Wild poinsettia” value ([10]; Rate 140 g/ha) was 50. The “Plant response rating, Soybean” value ([11]; Rate 35 g/ha) was 0, the “Plant response rating, Soybean” value ([11]; Rate 70 g/ha) was 0 and the “Plant response rating, Soybean” value ([11]; Rate 140 g/ha) was 0. For the same molecule, the “Plant response rating, Lambsquarters” value ([12]; Rate 35 g/ha) was 100, the “Plant response rating, Lambsquarters” value ([12]; Rate 70 g/ha) was 100 and the “Plant response rating, Lambsquarters” value ([12]; Rate 140 g/ha) was 100. For the same molecule, the “Plant response rating, Field bindweed” value ([13]; Rate 35 g/ha) was 65, the “Plant response rating, Field bindweed” value ([13]; Rate 70 g/ha) was 50 and the “Plant response rating, Field bindweed” value ([13]; Rate 140 g/ha) was 50. The “Plant response rating, E. blacknightsh” value ([14]; Rate 35 g/ha) was 90, the “Plant response rating, E. blacknightsh” value ([14]; Rate 70 g/ha) was 90 and the “Plant response rating, E. blacknightsh” value ([14]; Rate 140 g/ha) was 95.
